Data: US9492471B2, “Methods of treating a disease or disorder associated with Bruton'S Tyrosine Kinase” (Celgene Avilomics Research, Inc., priority 2013, dated 2016)
Where two headings read alike, the source gives them in different places.

Key:
[1] = target: T1, IKKa/CHUK (Homo sapiens, UniProt O15111); test: HotSpot kinase profiling; type: biochemical
T1 construct: purchased Reaction Biology Corp
T1 sequence (O15111 1-745): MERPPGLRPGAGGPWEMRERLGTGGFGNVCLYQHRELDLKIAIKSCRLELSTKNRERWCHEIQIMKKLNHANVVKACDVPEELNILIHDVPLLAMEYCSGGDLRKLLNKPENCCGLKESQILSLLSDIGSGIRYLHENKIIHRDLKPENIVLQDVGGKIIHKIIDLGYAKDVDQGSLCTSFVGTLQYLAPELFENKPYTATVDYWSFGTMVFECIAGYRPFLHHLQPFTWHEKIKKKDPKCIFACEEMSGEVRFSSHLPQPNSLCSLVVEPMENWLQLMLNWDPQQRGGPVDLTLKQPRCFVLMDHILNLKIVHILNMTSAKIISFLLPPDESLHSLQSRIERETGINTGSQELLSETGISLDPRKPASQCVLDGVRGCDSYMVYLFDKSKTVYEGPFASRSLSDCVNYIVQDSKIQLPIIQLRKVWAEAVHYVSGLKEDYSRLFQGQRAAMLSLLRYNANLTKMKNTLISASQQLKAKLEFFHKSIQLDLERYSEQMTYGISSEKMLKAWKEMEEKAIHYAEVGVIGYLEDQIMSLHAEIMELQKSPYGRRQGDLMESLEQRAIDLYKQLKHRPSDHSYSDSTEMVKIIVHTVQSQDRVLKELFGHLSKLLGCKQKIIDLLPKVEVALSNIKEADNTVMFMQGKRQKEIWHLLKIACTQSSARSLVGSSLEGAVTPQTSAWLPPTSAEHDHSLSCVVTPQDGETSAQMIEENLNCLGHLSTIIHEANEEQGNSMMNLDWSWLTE
Procedure, shortened: (§1)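 P81 filtration radiometric readout; 2 h incubation at room temperature; 0.1% phosphoric acid wash; DMSO negative control; % inhibition, mean of replicate runs.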

[2] = target: T2, TAOK1 (Homo sapiens, UniProt Q7L7X3); test: HotSpot kinase profiling; type: biochemical
T2 construct: purchased Reaction Biology Corp
T2 sequence (Q7L7X3 1-1001): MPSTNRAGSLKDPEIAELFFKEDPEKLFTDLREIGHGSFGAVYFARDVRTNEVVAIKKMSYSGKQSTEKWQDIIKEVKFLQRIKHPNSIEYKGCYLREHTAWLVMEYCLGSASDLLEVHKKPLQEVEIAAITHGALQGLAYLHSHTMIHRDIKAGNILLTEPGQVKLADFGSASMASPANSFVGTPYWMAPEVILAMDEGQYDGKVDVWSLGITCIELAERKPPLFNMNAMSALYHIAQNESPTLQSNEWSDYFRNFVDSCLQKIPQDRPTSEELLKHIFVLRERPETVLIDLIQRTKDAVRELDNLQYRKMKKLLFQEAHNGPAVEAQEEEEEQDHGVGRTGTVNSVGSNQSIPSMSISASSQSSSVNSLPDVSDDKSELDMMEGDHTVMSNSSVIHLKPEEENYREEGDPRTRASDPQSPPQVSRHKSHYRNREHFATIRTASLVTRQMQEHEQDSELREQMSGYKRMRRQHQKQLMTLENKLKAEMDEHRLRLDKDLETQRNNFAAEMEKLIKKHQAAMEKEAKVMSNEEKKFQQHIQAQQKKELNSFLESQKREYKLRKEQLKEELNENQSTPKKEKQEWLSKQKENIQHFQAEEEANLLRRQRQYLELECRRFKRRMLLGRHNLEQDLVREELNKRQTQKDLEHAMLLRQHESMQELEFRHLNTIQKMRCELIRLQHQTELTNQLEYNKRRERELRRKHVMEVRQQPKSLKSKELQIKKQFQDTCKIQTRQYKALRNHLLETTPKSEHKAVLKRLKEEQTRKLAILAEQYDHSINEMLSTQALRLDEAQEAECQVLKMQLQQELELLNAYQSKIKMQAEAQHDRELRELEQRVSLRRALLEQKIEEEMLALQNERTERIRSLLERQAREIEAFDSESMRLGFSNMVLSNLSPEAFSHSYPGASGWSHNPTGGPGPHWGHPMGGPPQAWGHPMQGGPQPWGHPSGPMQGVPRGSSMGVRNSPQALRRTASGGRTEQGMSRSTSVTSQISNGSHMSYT
Procedure, shortened: as §1

[3] = read-out: % Enzyme Activity (relative to DMSO controls) Run 1
[4] = read-out: % Enzyme Activity (relative to DMSO controls) Run 2

With C=CC(=O)Nc1cccc(Nc2nc(Nc3ccc(OCCOC)c(F)c3)ncc2F)c1 [Compound 2] the inhibition at 3 µM [1] was 8.54%, the remaining activity at 3 µM [1, 3] was 91.4% and the remaining activity at 3 µM [1, 4] was 91.5%. For the same compound, the inhibition at 3 µM [2] was 1.63%, the remaining activity at 3 µM [2, 3] was 100% and the remaining activity at 3 µM [2, 4] was 96.2%.
